Data published in US8835617B2, “Polynucleotides encoding a human TRIM-Cyp fusion polypeptide, compositions thereof, and methods of using same” (priority 2008, dated 2014).
Where “and” joins values, the source holds several entries; their conditions need not be identical. Equal entries are not always repeated. Where two headings read alike, the source gives them in different places.

Key:
[1] = test system: HIV-1; settings: U937, CEM-SS, SUP-T1, H9, HUH-7, CRFK, 293T
Text: Since the objective was to engineer a fully human HIV-1 restriction factor, hCypA was the fused at 10 different positions along the length of hT5α (FIG. 44A).

[2] = test system: HIV-1
Text: CD4^+ T cells were enriched from PBMCs using MACS, and activated using irradiated allo-PBMC and IL-2. […] Cells were sorted based on GFP-expression and then challenged with replication-competent, CXCR4-tropic, HIV-1NL4-3. […] Cells were infected with HIV-1NL4-3, modified to be CCR5-tropic.
293T human embryonic kidney cells and CRFK feline kidney cells were maintained in DMEM supplemented with 10% fetal bovine serum (FBS) and glutamax (Invitrogen). […] CD4^+ T cells were enriched from PBMCs (>99% CD4^+) using positive selection magnetic beads (Miltenyi Biotec) and stimulated for 24 hrs on multisorb 96-well plates (Nunc) coated with 2 μg/ml anti-CD3 and 2 μg/ml anti-CD28 antibodies (BD Biosciences) in RPMI with 10% FBS, glutamax (Invitrogen) and 20 IU/ml hIL-2. When indicated and in preparation for adoptive transfer to mice, CD4^+ T cells were stimulated using allogeneic-PBMCs irradiated at 50 Gy in the presence of 20 IU/ml IL-2 and phytohemagglutinin (PHA) at 1 μg/ml. Cells were washed and replated 24 hrs prior to viral transduction. […]
2×10^4 adherent cells/well or 8×10^4 suspension cells/well were plated in 48-well plates (Nunc) for challenge with single-cycle GFP reporter vectors that were titered as indicated. GFP synthesis was assessed by flow cytometry 48 hrs post-infection. […] For infection of 10^6 primary CD4^+ T cells or macrophages, 15 ng p24/10^6 cells of a CXCR4- or CCR5-tropic HIV-1NL4-3 stock was used, and infection was monitored by assessing the accumulation of RT activity in the supernatant (Sayah et al., 2004). FACSCalibur, Cellquest Pro (Becton Dickinson), and FlowJo software (Treestar, Inc.) were used to record and analyze fluorescence. […]
CD4^+ T cells and monocyte-derived macrophages were infected with low passage derivatives of primary isolates HIV-1DH12 and HIV-1132W, respectively. […] Infection was monitored by assessing the accumulation of RT activity in the supernatant at the indicated day post-infection, at which point CD4^+ cells were split and macrophages were fed as required.

[3] = test system: HIV-1NL4-3; test: hCD4+-Rag2-/-γc-/- mice infected with HIV-1 four to five days after adoptive transfer; format: in vivo
Text: Age-matched, 6-10 week-old Rag2^−/−γc^−/− mice were conditioned with clodronate and sublethal irradiation (van Rijn et al., 2003), and injected intraperitoneally with 2.5×10^6 transduced CD4^+ T cells (FIG. 68A,B).
Rag2^−/−γc^−/− mice on a BALB/c background (provided by M. Ito; Central Institute for Experimental Animals, Kawasaki, Japan) were bred and maintained under specific pathogen-free conditions in accordance with the guidelines of the animal facility at the Institute for Research in Biomedicine. CL2 MBP (clodronate) was from Roche Diagnostics (Mannheim, Germany). Preparation of liposomes containing CL2 MBP was done as described previously (Van Rooijen and Sanders, 1994). 6-10 week-old mice received 100 ul of clodronate liposomes intraperitoneally (i.p.) 24 hours prior to irradiation using a single sublethal dose of 4.0 Gray (Gy) from a Cesium 137 source (Biobeam 8000, STS GmbH, Braunschweig, Germany) at 3.75 Gy/min. […] CD4^+ T cell engraftment and maintenance in mice was measured by flow cytometry. To obtain peripheral blood cells and plasma, mice were bled from the retro-orbital venous sinus under anesthesia and red blood cells were lysed. When sacrificed, single cell suspensions from organs were prepared. For FACS analysis monoclonal antibodies against the following antigens were used: CD3 (UCHT1), CD4 (13B8.2), CD8 (B9.11), p24 (clone KC57) (all Immunotech/Beckman Coulter, Marseille, France), CD45 (HI30) (Caltag, Burlingame, Calif.). Intracellular staining for p24 was performed on single cell suspensions from mesenteric lymph nodes and thymus following staining with anti-CD3 antibody. Cells were washed, permeabilized, and fixed by treatment with BD Cytofix/Cytoperm (BD Pharmingen) and stained with anti-p24 antibody in BD Permwash solution (BD Pharmingen) following the manufacturer's instructions. Plasma HIV RNA concentrations were determined by Cobas Amplicor RT-PCR assay (Roche Diagnostics, Basel, Switzerland). Immunohistochemical stainings were performed as previously described (Baenziger et al., 2006). To assess nonspecific binding, tissue from untransplanted and uninfected transplanted mice was stained as controls.
Rag2^−/−γc^−/− mice on a BALB/c background (provided by M. Ito; Central Institute for Experimental Animals, Kawasaki, Japan) were bred and maintained under specific pathogen-free conditions in accordance with the guidelines of the animal facility at the Institute for Research in Biomedicine (Bellinzona) and the Swiss Federal Veterinary Office (Bern). Mouse experiments were reviewed and approved by the Veterinary Commission of the State of Ticino (Bellinzona, Switzerland). CL2 MBP (clodronate) was from Roche Diagnostics (Mannheim, Germany). Preparation of liposomes containing CL2 MBP was done as described previously (68). 6-10 week-old mice received 100 ul of clodronate liposomes intraperitoneally (i.p.) 24 hours prior to irradiation using a single sublethal dose of 4.0 Gray (Gy) from a Cesium 137 source (Biobeam 8000, STS GmbH, Braunschweig, Germany) at 3.75 Gy/min.

hT5Cyp: human TRIM5α fused at serine 322 to human cyclophilin A, SEQ ID NO:12
HIV-1 restriction in further cell lines [1]: restricted HIV-1
establishment of infection ([2]; CCR5-tropic HIV-1NL4-3): infection is not established
establishment of infection ([2]; CXCR4-tropic HIV-1NL4-3): infection was not established
block to infection ([2]; primary isolate HIV-1DH12): The same hT5Cyp-mediated block to infection
reduction in mean viral load vs hT5CypH126Q ([3]; Example 4, n=5 and n=4): 22 fold
mean peripheral blood CD45^+ cells ([3]; four weeks post-infection): 6.7%
percentage CD45^+ cells higher than hT5CypH126Q ([3]; four weeks post-infection): 15 fold
Viral load ([3]; individual mice, week 2, listed as wt): 103208 copies RNA/ml and 46007 copies RNA/ml and 43551 copies RNA/ml and 251320 copies RNA/ml and 66416 copies RNA/ml and 358800 copies RNA/ml and 566835 copies RNA/ml and 3811676 copies RNA/ml and 492800 copies RNA/ml and 27826 copies RNA/ml
Peripheral Blood (2 wks. postinfection) CD4 ([3]; individual mice, listed as wt): 1 percentage of total nucleated cells and 0.44 percentage of total nucleated cells and 0.33 percentage of total nucleated cells and 1.56 percentage of total nucleated cells and 2.7 percentage of total nucleated cells and 7.7 percentage of total nucleated cells and 15.1 percentage of total nucleated cells and 28.3 percentage of total nucleated cells and 1.89 percentage of total nucleated cells and 1.1 percentage of total nucleated cells
Peripheral Blood (2 wks. postinfection) CD45 ([3]; individual mice, listed as wt): 1.08 percentage of nucleated cells and 0.47 percentage of nucleated cells and 0.24 percentage of nucleated cells and 1.64 percentage of nucleated cells and 2.75 percentage of nucleated cells and 7.86 percentage of nucleated cells and 15.6 percentage of nucleated cells and 28.9 percentage of nucleated cells and 2.12 percentage of nucleated cells and 1.16 percentage of nucleated cells
Viral load (Corrected for CD4 count) ([3]; individual mice, listed as wt): 101231 and 104916 and 192227 and 159325 and 24321 and 47206 and 37382 and 134446 and 260305 and 25410
mean peripheral blood CD4^+ cells ([3]; two weeks post-infection): 6%
percentage CD4^+ cells higher than hT5CypH126Q ([3]; two weeks post-infection): 34 fold
